Results published in patent US20090325259A1, “USE OF ADHESION MOLECULES AS BOND STRESS-ENHANCED NANOSCALE BINDING SWITCHES” (priority 2002, published 2009).

Columns and labels:
[1] = test system: E. coli bacteria expressing f18-FimH; experiment: Parallel plate flow chamber, E. coli on surfaces coated with purified components; assay type: binding; conditions: for Effect of shear on accumulation of E. coli on coated surface (in words): 0.12 to 20 dynes/cm^2
Experimental: Parallel plate flow chamber experiments. Dishes coated with purified components were prepared by incubating 35 mm tissue culture dishes with […] of either 200 mg/ml man-BSA, 200 mg/ml gal-BSA, or a 50,000-fold dilution of polyclonal anti-FimH antiserum in 0.02M bicarbonate buffer for 75 minutes at 37 C, and then washing three times with phosphate-buffered […] with 0.1% BSA (PBS-BSA). The dishes were then inserted into a 2.5 cm×0.25 cm×[…] parallel plate flow chamber (GlycoTech). Bacteria expressing f18-FimH were prepared as described previously (W. E. Thomas, E. Trintchina, M. Forero, V. Vogel, E. V. Sokurenko, Cell 109:913-23 (Jun. 28, 2002)), and brought to 108 cfu/ml in PBS-BSA. 2% alpha-monomannose was added to the PBS-BSA in the studies of surfaces coated with anti-FimH antibodies in order to inhibit any potential mannose-specific interaction between the bacteria and the carbohydrate modifications on the antibodies. This solution of bacteria was flowed through the chamber using a Harvard syringe pump at various shear rates. The bound bacteria were recorded using a Nikon inverted microscope with a 10× phase-contrast objective, a Roper Scientific high-resolution CCD camera, and MetaMorph video acquisition software. The field of view was […] with a resolution of […] per pixel. Even when 400 bacteria bound per field of view, they covered only 1% of the surface area, so that any interactions between bacteria were minimal.
Videos of bound bacteria were analyzed using MetaMorph imaging software. Total bound bacteria in an image appeared as dark spots in phase-contrast and were counted using the automated cell counting package in MetaMorph. The moving bacteria in an image were identified by subtracting an image from another taken one second earlier so that the bacteria that moved after the first image appear as dark spots that can be counted (FIG. 1, FIG. 3A, FIG. 4). This number was compared to the total number originally counted in the first image to give the fraction of bacteria that moved (FIGS. 1B 3C 3D. The movement may represent detachment or rolling. In FIG. 3B where even detached bacteria were visible due to the short shutter speed and low flow rate, bacteria were classified as detached when they moved faster than the hydrodynamic velocity (the shear rate times the bacterial radius of […]), as stationary if they moved less than one pixel (the size of the larger fluctuations in bacterial position over time that occurred with no net movement), and as rolling for anything in between.
Bacterial adhesion and accumulation is the first step in colonizing, and in many cases infecting target tissues. In order to determine the mechanism which allows bacteria to adhere to target tissues under shear, we studied the kinetics by which E. coli bacteria attach and detach from 1Man-coated surfaces, and how the attachment and detachment behavior depends on shear. Recombinant type I fimbriated E. coli bacteria were used that expressed a variant of the adhesion FimH. […] This FimH variant is found in commensal E. coli strains, including the strain F-18 used in our study. Mannosylated bovine serum albumin (1Man-BSA) was adsorbed to glass to prepare chemically controlled model surfaces that expose only 1Man in contrast to using red blood cells that present additional ligands and receptors that might interacting with E. coli. […] A suspension of E. coli cells was passed through a flow chamber coated with 1Man and the binding of bacteria to the surface under various shear conditions was determined. Using a long (2 second) camera shutter time to blur out the free floating cells, we measured the accumulation of stationary bacteria bound to the surface after a period of five minutes at a range of physiologically relevant shear stresses, from 0.12 to 20 dynes/cm^2 (FIG. 6, triangles). […] This is consistent with previous reports of poor binding of this strain to 1Man in the absence of shear.

[2] = biological target: f-18 fimbriae (FimH) (Escherichia coli, UniProt P08191, N91S/S99N/V48A); conditions: 6 μm PS beads
Sequence of f-18 fimbriae (FimH) (P08191 22-300 V48A/N91S/S99N): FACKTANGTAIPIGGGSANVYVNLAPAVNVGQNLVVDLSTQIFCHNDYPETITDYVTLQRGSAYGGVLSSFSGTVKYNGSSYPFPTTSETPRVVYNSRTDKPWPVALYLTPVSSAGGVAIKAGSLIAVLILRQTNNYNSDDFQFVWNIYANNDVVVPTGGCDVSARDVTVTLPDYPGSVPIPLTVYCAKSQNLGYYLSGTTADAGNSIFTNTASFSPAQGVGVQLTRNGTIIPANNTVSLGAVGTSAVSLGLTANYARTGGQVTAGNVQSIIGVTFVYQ
Sequence of f-18 fimbriae (FimH) (P08190 24-167 partner): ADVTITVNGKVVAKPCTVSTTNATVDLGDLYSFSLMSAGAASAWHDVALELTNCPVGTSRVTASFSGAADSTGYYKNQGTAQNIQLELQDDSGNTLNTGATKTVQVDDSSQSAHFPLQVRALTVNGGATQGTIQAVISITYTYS
Sequence of f-18 fimbriae (FimH) (P08189 21-176 partner): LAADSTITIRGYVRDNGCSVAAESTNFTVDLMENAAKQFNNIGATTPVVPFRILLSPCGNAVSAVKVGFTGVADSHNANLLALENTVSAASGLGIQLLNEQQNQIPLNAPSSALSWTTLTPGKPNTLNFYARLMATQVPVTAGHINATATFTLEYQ
Sequence of f-18 fimbriae (FimH) (P04128 24-182 partner): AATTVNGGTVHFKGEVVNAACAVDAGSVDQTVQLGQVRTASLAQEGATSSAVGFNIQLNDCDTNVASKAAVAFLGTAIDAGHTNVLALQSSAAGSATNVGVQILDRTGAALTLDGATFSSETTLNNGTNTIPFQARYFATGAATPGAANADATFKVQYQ
Experimental: Physisorption of fimbriae to PS plates: 35 mm Coming (#430165) tissue culture dishes were incubated with purified fimbriae diluted 500 fold in 0.02M bicarbonate buffer at 37° C. for 1 hour, and then washed thrice in PBS with 0.1% BSA (PBS-BSA) to prevent nonspecific adhesion by the beads or RBCs to the dish.
Bead coating by 1Man-BSA: Polystyrene microspheres were prepared by rotating a solution of 50 μl of 2.6% beads mixed with 150 μl of 20-200 μg/ml receptor in 0.02M Bicarbonate buffer for one hour at room temperature. Then they were spun twice and resuspended in fresh PBS-BSA. They were finally diluted down to 0.1% and injected in the chamber.
Parallel plate flow chamber experiments: The coated dishes served as the bottom plate in parallel plate flow chamber from Glycotech #31-0001 (Rockville, Md.) using a silicon rubber gasket 20 mm long, 2.5 mm wide and 0.010 in thick. […] The movement of the beads and RBCs was recorded using an inverted Nikon TE 2000 microscope with a long working distance 10× phase contrast objective by means of a Roper Scientific (Duluth, Ga.) Cascade CCD camera.
Data Analysis: Images of the flow chamber were recorded every 3 seconds for 3 minutes at each shear rate. […] The expected free flowing velocity was calculated by multiplying the shear rate by the radius of the particle, assuming that it is barely touching the surface. […]

[3] = test system: guinea pig red blood cells (RBCs); experiment: RBC rosette-formation assay (static agglutination); assay type: cell-based; conditions: for RBC agglutination under static conditions (in words): static rosette-formation assay
Experimental: (§1) Assays of bacterial adhesion to Man1-BSA and bovine RNAseB immobilized in 96-well plates were carried out as described previously (Sokurenko et al., 1995). Briefly, Man1-BSA and bovine RNAseB were dissolved at 20 μg/ml in 0.02 M bicarbonate buffer, and 100 μl aliquots were incubated in microtiter wells for 1 hr at 37° C. The wells were then washed three times with PBS and quenched with 0.1% BSA in PBS. 3H-thymidine-labeled bacteria were added in 0.1% BSA in PBS and incubated for 40 min at 37° C. without shaking to achieve saturation, and the wells were then washed with PBS. The individual wells were subjected to scintillation counting. The density of bacteria used in all assays was 5×10^7 colony forming units per 100 μl. RBC rosette-formation assay was performed by mixing equal amounts of serially diluted bacterial suspensions (starting from OD540 nm=1.0) and a 1% suspension of RBC in U-bottom microtiter plate wells. On-slide agglutination assays were performed by mixing the suspension of RBC and bacteria on a slide surface followed by rocking at ˜3 s^−1.
(§2) Two commonly used RBC agglutination assays were performed that utilize different shear conditions. […] If no agglutination occurs, RBCs fall into a pellet in the bottom of the well (FIG. 15A), while agglutination results in a rosette of RBCs crosslinked by bacteria. […] After three minutes without rocking, the aggregate loosened (FIG. 15C).

[4] = test system: guinea pig red blood cells (RBCs); experiment: Parallel plate flow chamber, RBCs on carpet of FimH-expressing E. coli; assay type: cell-based; conditions: for Adhesion of RBCs to bacterial carpet under low shear: 0.01 to 0.14 dynes/cm^2
Experimental: Bacteria-coated dishes were prepared as follows: 35 mm tissue culture dishes were incubated with 20 μg/ml RNAse B in 0.02 M bicarbonate buffer for 1 hr at 37° C. and washed three times in PBS with 0.1% BSA (PBS-BSA). The dishes were then incubated with 200 μl PBS-BSA containing 108 colony-forming units of E. coli for 1 hr at 37° C. and washed three times. […] The dishes were then placed under a Glycotech parallel plate flow chamber with a size B gasket (2.5 cm×0.25 cm×250 μm) and sealed with vacuum. A Harvard model #975 pulse-free syringe pump was used to pump fluid through the chamber. The dishes were equilibrated in the flow chamber with PBS-BSA, and a 0.1% solution of RBC was injected into the chamber, allowed to settle onto the bacterial carpet, and washed with PBS-BSA at a shear stress of about 0.5 dynes/cm^2 until all free cells had been removed from the chamber and upstream tubing. The volumetric flow was then reduced to bring the shear stress down to 0.01-0.02 dynes/cm^2, and the shear stress was stepped up 2-fold, with at least 3 min at each shear stress.
RBC movement was recorded using phase contrast microscopy with a 20× objective, a CCD camera, and Metamorph video imaging software by Universal Imaging. Videos were recorded at 1 frame every 2 s for a total of 3 min at each shear rate. The position of each RBC was tracked at 6 s intervals in these videos using Metamorph's point tracking plug-in. The average velocity for each cell was calculated from these positions over the 3 min at each shear. These were then averaged for the average velocity of all cells. Some cells detached completely at the low shear stress and moved at the fluid velocity. (A cell moving in flow near a surface has velocity approximately equal to the cell radius, 5 μm, times the shear rate, assuming it is almost touching the surface.) Since these times reflected movement without any bond detachment, these time intervals were removed from the analysis for each cell. We only analyzed cells that were attached and in the field of view at the start of the 3 min time frame. The off-rate of RBCs was calculated from the X, the percent of original RBCs remaining bound at time t, using the formula k=1/t·ln(1/X), and using t=3 min. This assumes that detachment is independent and governed by a single rate constant, and X=e−kt, so that the number of remaining RBCs decays exponentially.
To establish whether the differential pattern of RBC agglutination observed in example 1 was due to a distinct ability of shear to enhance adhesion of type I fimbriated bacteria to RBCs, we studied the adhesion of low- and high-Man1 binding variants to RBCs under well-defined shear conditions. Previous studies on the effect of shear on selectin or von Willebrand factor-mediated adhesion of lymphocytes and platelets have used flow chambers (Finger et al., 1996; Marchese et al., 1999). Using a similar approach, we immobilized bacteria expressing either FimH-f18 or FimH-j96 on the surface of a flow chamber coated with bovine 3Man-RNaseB, a model trimannose-containing substrate to which both FimH variants bind with equal affinity (see Table 1A). In brief, RBCs were allowed to bind to the bacterial carpet, and the unbound cells were removed by rinsing under moderate fluid flow shear (0.28 to 0.90 dynes/cm^2). RBCs that remained attached to the bacterial carpet were then subjected to various shear conditions.

[5] = test system: guinea pig red blood cells (RBCs); experiment: On-slide RBC agglutination with rocking (dynamic); assay type: cell-based
Experimental: as §1, §2

[6] = switch from 5 to 0.12 dynes/cm^2

Q: What does the source list for “1Man-BSA: monomannose (1Man) conjugated to Bovine Serum Albumin”?
A: Effect of shear on accumulation of E. coli on coated surface (in words) [1]: shear enhances the adhesion; Number of initial attachments in the field of view ([1]; 0.5 dynes/cm^2): 102 attachments per minute; Number of initial attachments in the field of view ([1]; 3.6 dynes/cm^2): 64 attachments per minute; Increase of E. coli accumulation on coated surface ([1]; 5 dynes/cm^2): 100 -fold; Number of initial attachments in the field of view ([1]; 7 dynes/cm^2): 32 attachments per minute; Rolling velocity of surface-bound bacteria ([1]; at the peak of the accumulation curve): about 30 mm per second; Accumulation of E. coli on coated surface, fold higher binding ([1]; peaking at around 3-5 dynes/cm^2, five minutes): over 100 -fold; First-order rate constant for the switch from rolling to detached [1, 6]: 3 s⁻¹; First-order rate constant for the switch from stationary to rolling [1, 6]: 0.09 s⁻¹; Binding of coated beads to carpet of fimbriae (in words) [2]: shear-activated binding; Shear stress at which bead velocity starts to drop [2]: 0.03 pN/μm^2

Q: What does the source list for `COC1O[C@H](CO)[C@@H](O)[C@H](O)[C@@H]1O` (stereo partly drawn) [α-methyl-mannoside, reference compound]?
A: Inhibition of RBC agglutination by α-methyl-mannoside ([3]; 50 mM, in all assays (static and dynamic)): inhibitable; Inhibition of original attachment of RBCs to bacteria ([4]; 50 mM): could be inhibited

Q: For “FimH-f18: low-Man1 binding natural FimH variant from intestinal E. coli strain F18, expressed on type I fimbriated recombinant bacteria”, which “RBC agglutination under static conditions (in words)” value (“RBC agglutination … (in words)” below) [3] is on record?
A: unable to mediate RBC agglutination

Q: And the “Time after rocking was stopped within which aggregates began to dissipate” value ([5]; after rocking was stopped)?
A: ≤ 3 min

Q: What about the “RBC aggregate formation in rocking assay with diluted bacteria” value ([5]; bacteria 10-fold diluted) of the same compound?
A: still formed aggregates

Q: And the “Off-rate of RBCs from bacterial carpet” value ([4]; 0.14 dynes/cm^2)?
A: 0.002 min⁻¹

Q: What about the “Off-rate of RBCs from bacterial carpet” value ([4]; 0.2 to 0.4 dynes/cm^2, on average) of the same compound?
A: 0.1 min⁻¹

Q: What about the “Off-rate of RBCs from bacterial carpet” value ([4]; 0.7 dynes/cm^2) of the same compound?
A: 0.03 min⁻¹

Q: What about the “Adhesion of RBCs to bacterial carpet under low shear” value [4] of the same compound?
A: bind weakly

Q: And the “Adhesion of RBCs to bacterial carpet under moderate shear” value ([4]; moderate shear, 0.28 to 0.90 dynes/cm^2)?
A: firmly adhered

Q: And the “Off-rate of RBCs from bacterial carpet” value ([4]; shear stresses above 0.2 dynes/cm^2)?
A: too low to measure

Q: With “FimH-j96: natural FimH variant of uropathogenic E. coli strain J96; differs from FimH-f18 by A27V, S70N, N78S” as the compound, how does the “Dilution of bacteria up to which RBC rosettes formed” value ([3]; static conditions) read?
A: ≤ 8 -fold dilution

Q: What about the “RBC agglutination … (in words)” value [3] of the same compound?
A: able to agglutinate RBC in static conditions

Q: What about the “Stability of RBC aggregates after rocking was halted” value ([5]; after rocking was halted) of the same compound?
A: remained stable indefinitely long

Q: What about the “Time for RBCs to form tight clumps in dynamic rocking assay” value ([5]; highest concentration of bacteria (10^9 bacteria/ml)) of the same compound?
A: 35 ± 2 s

Q: What about the “Adhesion of RBCs to bacterial carpet under low shear” value [4] of the same compound?
A: adhered firmly

Q: “Q32L: single Q32L mutation, effect stated in the FimH-j96 background” was tested. Which “RBC agglutination … (in words)” value [3] did it give?
A: eliminated the ability of the bacteria to agglutinate RBCs under static conditions

Q: For “S124A: single S124A mutation, effect stated in the FimH-j96 background”, which “RBC agglutination … (in words)” value [3] is on record?
A: eliminated the ability of the bacteria to agglutinate RBCs under static conditions

Q: For “galactosylated BSA: negative control galactosylated BSA; galactose is not specifically recognized by FimH”, which “Effect of shear on accumulation of E. coli on coated surface (in words)” value [1] is on record?
A: essentially no bacteria bound at any shear
